Data set [1] deals with PBMC. As to the kind of experiment: Induction of apoptosis in human PBMCs assessed as accumulation at G2/M-phase at 10 uM measured after 72 hrs by propidium iodide staining-based flow cytometric analysis. Type of data set: cell-based. (Flow cytometry measures light scatter and fluorescence of single cells or particles in a stream.)
Data set [2] concerns the target Estrogen receptor beta (Homo sapiens, UniProt Q92731).
Description: Inhibition of ER-beta (unknown origin) by Lanthascreen-FRET assay
The test system of data set [3] is MCF7. The experiment in a line: Induction of apoptosis in human MCF7 cells assessed as accumulation at G2/M-phase at 10 uM measured after 72 hrs by propidium iodide staining-based flow cytometric analysis. The data set is classed as functional, cell-based.
Data set [4] relates to PBMC. The experiment in a line: Induction of apoptosis in human PBMCs assessed as apoptotic cells at 10 uM measured after 72 hrs by propidium iodide staining-based flow cytometric analysis (reference value: 1.5 +/- 0.6%). The data set is classed as cell-based.
For data set [5], the system named is MCF7. The experiment in a line: Induction of apoptosis in human MCF7 cells assessed as apoptotic cells at 10 uM measured after 72 hrs by propidium iodide staining-based flow cytometric analysis (reference value: 5.5 +/- 1.3%). Type of data set: functional.
Data set [6] concerns the target T1, Estrogen receptor (Homo sapiens, UniProt P03372).
T1 sequence (P03372 whole entry): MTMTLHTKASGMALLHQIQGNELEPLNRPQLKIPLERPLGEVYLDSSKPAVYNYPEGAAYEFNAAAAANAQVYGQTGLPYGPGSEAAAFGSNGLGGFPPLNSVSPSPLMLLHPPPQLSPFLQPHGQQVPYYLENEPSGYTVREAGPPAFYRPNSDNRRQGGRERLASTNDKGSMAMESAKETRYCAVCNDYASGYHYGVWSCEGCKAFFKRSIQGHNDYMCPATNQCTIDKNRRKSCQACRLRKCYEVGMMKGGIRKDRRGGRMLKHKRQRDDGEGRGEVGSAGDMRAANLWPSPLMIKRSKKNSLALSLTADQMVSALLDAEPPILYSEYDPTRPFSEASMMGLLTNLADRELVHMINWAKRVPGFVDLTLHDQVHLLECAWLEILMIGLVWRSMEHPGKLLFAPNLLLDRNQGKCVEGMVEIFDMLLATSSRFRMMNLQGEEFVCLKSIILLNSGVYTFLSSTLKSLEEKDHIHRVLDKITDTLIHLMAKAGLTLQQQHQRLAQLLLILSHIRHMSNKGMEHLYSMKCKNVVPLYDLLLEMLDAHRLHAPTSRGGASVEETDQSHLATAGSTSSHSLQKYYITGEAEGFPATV
Description: Inhibition of ER-alpha (unknown origin) by Lanthascreen-FRET assay

Data set [7] relates to MCF7. The experiment in a line: cells. To be noted: Homo sapiens, MCF7, 72 h.
Description: Antiproliferative activity against ER-positive human MCF7 cells assessed as reduction in cell viability measured after 72 hrs by AlamarBlue assay

pIC50: −log10 of the molar value. The source made the active and inactive calls. The rule behind the calls is not given here.

Estrogen receptor beta, sequence (Q92731 whole entry): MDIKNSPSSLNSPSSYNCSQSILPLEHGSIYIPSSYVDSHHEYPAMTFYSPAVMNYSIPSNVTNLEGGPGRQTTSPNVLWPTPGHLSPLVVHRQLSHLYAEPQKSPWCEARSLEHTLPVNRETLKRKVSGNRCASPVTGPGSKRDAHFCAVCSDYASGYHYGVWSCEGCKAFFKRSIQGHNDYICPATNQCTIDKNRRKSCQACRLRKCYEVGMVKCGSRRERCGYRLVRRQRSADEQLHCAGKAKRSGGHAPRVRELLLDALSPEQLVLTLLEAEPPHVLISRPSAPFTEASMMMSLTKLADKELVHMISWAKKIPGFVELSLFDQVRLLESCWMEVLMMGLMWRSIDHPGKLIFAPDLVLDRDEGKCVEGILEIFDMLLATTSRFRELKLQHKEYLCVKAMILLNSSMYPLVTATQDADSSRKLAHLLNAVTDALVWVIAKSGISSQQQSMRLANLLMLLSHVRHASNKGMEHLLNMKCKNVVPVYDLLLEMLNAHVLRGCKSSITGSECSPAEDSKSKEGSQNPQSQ

What is called pIC50 is the IC50 on a negative log10 scale, so that one unit is a factor of ten. A low value points to a large IC50. `CNCCCCCCCCCCCCn1c(-c2ccc(O)cc2)c(C)c2cc(O)ccc21`: the Activity result in data set [1] is reported as “Non-toxic”; in data set [4], “Non-toxic”; in data set [5], 7.5%. The pIC50 in data set [2] was 5.78; in data set [6] it was 6.42; in data set [7], 4.48. In data set [3], the outcome was inactive. Regarding `Cc1c(-c2ccc(O)cc2)n(Cc2ccc(Cn3c(-c4ccc(O)cc4)c(C)c4cc(O)ccc43)cc2)c2ccc(O)cc12`, in data set [7], the pIC50 is 5.46. Consider `COc1ccc(/C=C(/C(=O)N(C)CCCCCCCCCCCCn2c(-c3ccc(O)cc3)c(C)c3cc(O)ccc32)c2cc(OC)c(OC)c(OC)c2)cc1O`, for which the Activity result is “Non-toxic” in data set [1], “Non-toxic” in data set [4] and 42.1% in data set [5]. Further, the pIC50 was 6.81 in data set [2], 6.24 in data set [6] and 5.73 in data set [7]. For the same compound, the outcome in data set [3] was inactive. `Cc1c(-c2ccc(O)cc2)n(Cc2ccc(O)cc2)c2ccc(O)cc12` had a pIC50 in data set [7] of 4.41. Consider `CNCCCCCn1c(-c2ccc(O)cc2)c(C)c2cc(O)ccc21`, for which the pIC50 in data set [7] is 4.31. Turning to `COc1ccc(/C=C(/C(=O)N(C)CCCCCCn2c(-c3ccc(O)cc3)c(C)c3cc(O)ccc32)c2cc(OC)c(OC)c(OC)c2)cc1O`, the pIC50 in data set [7] is 5.63. On to `COc1ccc(/C=C(/C(=O)N(C)CCCCCn2c(-c3ccc(O)cc3)c(C)c3cc(O)ccc32)c2cc(OC)c(OC)c(OC)c2)cc1O`, for which the pIC50 in data set [7] is 5.53. As to `Cc1c(-c2ccc(O)cc2)n(Cc2ccc(F)cc2)c2ccc(O)cc12`, in data set [7], the negative logarithm of the IC50 (pIC50) was 4.39. Turning to `Cc1c(-c2ccc(O)cc2)n(CCCCCCCCCCCCn2c(-c3ccc(O)cc3)c(C)c3cc(O)ccc32)c2ccc(O)cc12`, the pIC50 in data set [7] is 5.28. Same read-out and setting: then `CCCCn1c(-c2ccc(O)cc2)c(C)c2cc(O)ccc21`, with 4.47; and `CNCCCCn1c(-c2ccc(O)cc2)c(C)c2cc(O)ccc21`, with 4.39. `Cc1c(-c2ccc(O)cc2)n(CCCCCCCCn2c(-c3ccc(O)cc3)c(C)c3cc(O)ccc32)c2ccc(O)cc12` had a pIC50 in data set [7] of 5.18. On the same count and under the same terms, in the case of `COc1ccc(/C=C(/C(=O)N(C)CCCCCCCCn2c(-c3ccc(O)cc3)c(C)c3cc(O)ccc32)c2cc(OC)c(OC)c(OC)c2)cc1O` it was 5.53. In data set [7], `Cc1c(-c2ccc(O)cc2)n(CCO)c2ccc(O)cc12` had a pIC50 of 4.75. On the same count and under the same terms, then `CNCCCCCCCCn1c(-c2ccc(O)cc2)c(C)c2cc(O)ccc21`, with 4.41; and `COc1cc(Cn2c(-c3ccc(O)cc3)c(C)c3cc(O)ccc32)cc(OC)c1OC`, with 3.48; and `COc1ccc(-c2c(C)c3cc(OC)ccc3n2CCCCN(C)C(=O)/C(=C/c2ccc(OC)c(O)c2)c2cc(OC)c(OC)c(OC)c2)cc1`, with 4.09. `Cc1c(-c2ccc(O)cc2)n(CCCCCn2c(-c3ccc(O)cc3)c(C)c3cc(O)ccc32)c2ccc(O)cc12`: in data set [7], the pIC50 is 5.38. `Cc1c(-c2ccc(O)cc2)n(CCCCCCn2c(-c3ccc(O)cc3)c(C)c3cc(O)ccc32)c2ccc(O)cc12` showed a pIC50 in data set [7] of 5.09. `COc1ccc(/C=C(/C(=O)N(C)CCCCn2c(-c3ccc(O)cc3)c(C)c3cc(O)ccc32)c2cc(OC)c(OC)c(OC)c2)cc1O` had a pIC50 in data set [7] of 5.70. Regarding `CNCCCCCCn1c(-c2ccc(O)cc2)c(C)c2cc(O)ccc21`, the pIC50 in data set [7] was 4.38. For `Cc1c(-c2ccc(O)cc2)n(CCCCn2c(-c3ccc(O)cc3)c(C)c3cc(O)ccc32)c2ccc(O)cc12`, the Activity entry is “Non-toxic” in data set [1], 16.7% in data set [4] and 54.7% in data set [5]. The pIC50 in data set [2] was 7.39; in data set [6], 6.36; in data set [7], 5.56. For the same compound, the result in data set [3] was inactive.

The values above are taken from ChEMBL document CHEMBL3822435, “Synthesis, antiproliferative and pro-apoptotic activity of 2-phenylindoles” (Bioorg Med Chem, 2016).
